Laboratory results published in patent US10351522B2, “Sulfonamide derivative and pharmaceutically acceptable acid addition salt thereof” (UNIVERSITY OF TSUKUBA, priority 2015, dated 2019).
Read-outs that look alike come from different tables or passages of the source.

Assays:
[1] = molecular target: T1, human OX1R (Homo sapiens, UniProt O43613); assay: Agonist activity against OX1R: intracellular calcium (Fura-2AM, FDSS7000) in CHOOX1R cells; format: cell-based; conditions: for Emax at 0.1 µM / Emax at 1 µM / Emax at 10 µM: read-out: Response (%) OX1R
T1 construct: expressed in transfected cells; host or cells: CHO (Chinese hamster ovary) cells, line CHOOX1R, co-expressing NFAT-luciferase
T1 sequence (O43613 1-425): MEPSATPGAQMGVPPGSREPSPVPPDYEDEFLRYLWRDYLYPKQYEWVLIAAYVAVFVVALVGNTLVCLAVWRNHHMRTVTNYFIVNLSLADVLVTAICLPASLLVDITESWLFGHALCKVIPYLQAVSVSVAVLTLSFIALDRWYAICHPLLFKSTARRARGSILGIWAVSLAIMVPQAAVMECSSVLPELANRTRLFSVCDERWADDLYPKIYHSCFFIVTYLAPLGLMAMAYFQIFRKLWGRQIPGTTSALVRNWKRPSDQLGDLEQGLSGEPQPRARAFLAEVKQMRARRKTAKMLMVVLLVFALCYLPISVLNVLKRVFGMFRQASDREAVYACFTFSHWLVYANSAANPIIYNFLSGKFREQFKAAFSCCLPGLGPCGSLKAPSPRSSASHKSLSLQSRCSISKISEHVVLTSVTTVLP
Method in brief: (§1)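 Response is agonist activity at 0.1, 1.0 or 10 μM compound as a percentage of the orexin-A full-agonist maximum, taken from 340/380 nm Fura-2 ratio changes. Each cell line is CHO constitutively expressing human OX1R or OX2R with NFAT-luciferase, dye-loaded 60 min with 5 μM Fura-2AM; compound range 10^−7–10^−5 M, 1% DMSO.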

[2] = molecular target: T2, human OX2R (Homo sapiens, UniProt O43614); assay: Agonist activity against OX2R: intracellular calcium (Fura-2AM, FDSS7000) in CHOOX2R cells; format: cell-based; conditions: relative to orexin-A as full agonist (100%)
T2 construct: expressed in transfected cells; host or cells: CHO (Chinese hamster ovary) cells, line CHOOX2R, co-expressing NFAT-luciferase
T2 sequence (O43614 1-444): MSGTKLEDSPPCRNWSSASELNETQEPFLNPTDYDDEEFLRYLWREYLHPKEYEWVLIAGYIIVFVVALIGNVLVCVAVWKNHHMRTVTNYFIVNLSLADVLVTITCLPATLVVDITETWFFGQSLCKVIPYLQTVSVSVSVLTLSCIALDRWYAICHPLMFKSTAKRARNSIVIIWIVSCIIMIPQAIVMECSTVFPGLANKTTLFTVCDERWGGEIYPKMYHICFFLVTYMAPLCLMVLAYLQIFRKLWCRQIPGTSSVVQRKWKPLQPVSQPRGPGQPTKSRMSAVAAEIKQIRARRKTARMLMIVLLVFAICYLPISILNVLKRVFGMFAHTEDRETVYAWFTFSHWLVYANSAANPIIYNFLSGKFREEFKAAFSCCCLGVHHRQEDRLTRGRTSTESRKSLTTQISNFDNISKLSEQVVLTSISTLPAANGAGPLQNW
Method in brief: as §1

[3] = test compound 0.1 μM, relative to orexin-A as full agonist (100%)
[4] = test compound 1.0 μM, relative to orexin-A as full agonist (100%)
[5] = test compound 10 μM, relative to orexin-A as full agonist (100%)
[6] = 0.1 μM test compound, relative to orexin-A as full agonist (100%)
[7] = 1.0 μM test compound, relative to orexin-A as full agonist (100%)
[8] = 10 μM test compound, relative to orexin-A as full agonist (100%)

COc1ccc(-c2cccc(C(=O)N(C)C)c2)cc1S(=O)(=O)Nc1cccc(NC(=O)Nc2cccc(N(C)C)c2)n1 [Example 124]
Response (%) OX1R [1, 3]: 8% | Response (%) OX1R [1, 4]: 7% | Response (%) OX1R [1, 5]: 8% | Response (%) OX2R ([2]; test compound 0.1 μM): 9% | Response (%) OX2R ([2]; test compound 1.0 μM): 78% | Response (%) OX2R ([2]; test compound 10 μM): 147%

COc1ccc(-c2cccc(C(=O)N(C)C)c2)cc1S(=O)(=O)Nc1cccc(NC(=O)Nc2cccc([N+](=O)[O-])c2)c1 [Example 57]
Response (%) OX1R [1, 6]: <5% | Response (%) OX1R [1, 7]: <5% | Response (%) OX1R [1, 8]: <5% | Response (%) OX2R ([2]; 0.1 μM test compound): 91% | Response (%) OX2R ([2]; 1.0 μM test compound): 92% | Response (%) OX2R ([2]; 10 μM test compound): 60%

COc1ccccc1Nc1c(Nc2cccc(NS(=O)(=O)c3cc(-c4cccc(C(=O)N(C)C)c4)ccc3OC)c2)c(=O)c1=O [Example 83]
Response (%) OX1R [1, 3]: <5% | Response (%) OX1R [1, 4]: <5% | Response (%) OX1R [1, 5]: 9% | Response (%) OX2R ([2]; test compound 0.1 μM): <5% | Response (%) OX2R ([2]; test compound 1.0 μM): <5% | Response (%) OX2R ([2]; test compound 10 μM): 11%

COc1ccc(-c2cccc(C(=O)N(C)C)c2)cc1S(=O)(=O)Nc1cccc(NC(=O)Nc2ccc(NC(=N)NC(=O)OC(C)(C)C)cc2)c1 [Example 59]
Response (%) OX1R [1, 6]: <5% | Response (%) OX1R [1, 7]: <5% | Response (%) OX1R [1, 8]: <5% | Response (%) OX2R ([2]; 0.1 μM test compound): <5% | Response (%) OX2R ([2]; 1.0 μM test compound): 18% | Response (%) OX2R ([2]; 10 μM test compound): 52%

COc1ccc(-c2cccc(C(=O)N(C)C)c2)cc1S(=O)(=O)Nc1ccccc1NC(=O)Nc1cccc(N(C)C)c1 [Example 121]
Response (%) OX1R [1, 3]: <5% | Response (%) OX1R [1, 4]: <5% | Response (%) OX1R [1, 5]: 10% | Response (%) OX2R ([2]; test compound 0.1 μM): 7% | Response (%) OX2R ([2]; test compound 1.0 μM): 47% | Response (%) OX2R ([2]; test compound 10 μM): 104%

COc1ccc(-c2cccc(C(=O)N(C)C)c2)cc1S(=O)(=O)Nc1cccc(NS(=O)(=O)c2cccc(Br)c2)c1 [Example 86]
Response (%) OX1R [1, 3]: <5% | Response (%) OX1R [1, 4]: <5% | Response (%) OX1R [1, 5]: <5% | Response (%) OX2R ([2]; test compound 0.1 μM): <5% | Response (%) OX2R ([2]; test compound 1.0 μM): <5% | Response (%) OX2R ([2]; test compound 10 μM): 11%

COc1ccc(Nc2cccc(NS(=O)(=O)c3cc(-c4cccc(C(=O)N(C)C)c4)ccc3OC)c2)cc1 [Example 29]
Response (%) OX1R [1, 6]: <5% | Response (%) OX1R [1, 7]: <5% | Response (%) OX1R [1, 8]: <5% | Response (%) OX2R ([2]; 0.1 μM test compound): 11% | Response (%) OX2R ([2]; 1.0 μM test compound): 84% | Response (%) OX2R ([2]; 10 μM test compound): 81%

COc1ccc(-c2cccc(C(=O)N(C)C)c2)cc1S(=O)(=O)Nc1cccc(Nc2c(Nc3cccc(C)c3)c(=O)c2=O)c1 [Example 80, 3′-(N-(3-((3,4-dioxo-2-(m-tolylamino)cyclobut-1-en-1-yl)amino)phenyl)sulfamoyl)-4′-methoxy-N,N-dimethyl-[1,1′-biphenyl]-3-carboxamide]
Emax at 0.1 µM [1, 6]: < 5% | Emax at 1 µM [1, 7]: < 5% | Emax at 10 µM [1, 8]: < 5% | Response (%) OX2R ([2]; 0.1 μM test compound): <5% | Response (%) OX2R ([2]; 1.0 μM test compound): <5% | Response (%) OX2R ([2]; 10 μM test compound): 23%

CCOc1ccc(-c2cccc(C(=O)N(C)C)c2)cc1S(=O)(=O)Nc1cccc(NC(=O)Nc2cccc(N(C)C)c2)c1 [Example 119, 3′-(N-(3-(3-(3-(dimethylamino)phenyl)ureido)phenyl)sulfamoyl)-4′-ethoxy-N,N-dimethyl-[1,1′-biphenyl]-3-carboxamide]
Emax at 0.1 µM [1, 3]: < 5% | Emax at 1 µM [1, 4]: < 5% | Emax at 10 µM [1, 5]: < 5% | Response (%) OX2R ([2]; test compound 0.1 μM): 49% | Response (%) OX2R ([2]; test compound 1.0 μM): 85% | Response (%) OX2R ([2]; test compound 10 μM): 98%

COc1ccc(-c2cccc(C(=O)N(C)C)c2)cc1S(=O)(=O)Nc1cccc(NC(=O)Nc2ccc(Br)cc2)c1 [Example 42]
Response (%) OX1R [1, 6]: <5% | Response (%) OX1R [1, 7]: <5% | Response (%) OX1R [1, 8]: <5% | Response (%) OX2R ([2]; 0.1 μM test compound): 93% | Response (%) OX2R ([2]; 1.0 μM test compound): 109% | Response (%) OX2R ([2]; 10 μM test compound): 95%

COc1ccc(C(=O)NCc2cccnc2)cc1S(=O)(=O)Nc1cccc(NC(=O)Nc2cccc(N(C)C)c2)c1 [Example 103]
Response (%) OX1R [1, 3]: <5% | Response (%) OX1R [1, 4]: <5% | Response (%) OX1R [1, 5]: <5% | Response (%) OX2R ([2]; test compound 0.1 μM): 4% | Response (%) OX2R ([2]; test compound 1.0 μM): 27% | Response (%) OX2R ([2]; test compound 10 μM): 84%

COc1ccc(-c2cccc(C(=O)N(C)C)c2)cc1S(=O)(=O)Nc1cccc(N(CCNC(=O)OC(C)(C)C)Cc2ccccc2)c1 [Example 91, tert-butyl (2-((benzyl)(3-(3′-(dimethylcarbamoyl)-4-methoxy-[1,1′-biphenyl]-3-ylsulfonamido)phenyl)amino)ethyl)carbamate]
Emax at 0.1 µM [1, 3]: < 5% | Emax at 1 µM [1, 4]: < 5% | Emax at 10 µM [1, 5]: < 5% | Response (%) OX2R ([2]; test compound 0.1 μM): <5% | Response (%) OX2R ([2]; test compound 1.0 μM): <5% | Response (%) OX2R ([2]; test compound 10 μM): 35%

COc1ccc(C(=O)NCCNC(=O)OC(C)(C)C)cc1S(=O)(=O)Nc1cccc(NC(=O)Nc2cccc(N(C)C)c2)c1 [Example 105]
Response (%) OX1R [1, 3]: 8% | Response (%) OX1R [1, 4]: 7% | Response (%) OX1R [1, 5]: 8% | Response (%) OX2R ([2]; test compound 0.1 μM): 9% | Response (%) OX2R ([2]; test compound 1.0 μM): 32% | Response (%) OX2R ([2]; test compound 10 μM): 92%

COc1ccc(-c2cccc(C(=O)N(C)C)c2)cc1S(=O)(=O)Nc1cccc(NC(=O)c2ccc3c(c2)OCO3)c1 [Example 5]
Response (%) OX1R [1, 6]: 8% | Response (%) OX1R [1, 7]: 8% | Response (%) OX1R [1, 8]: 7% | Response (%) OX2R ([2]; 0.1 μM test compound): 10% | Response (%) OX2R ([2]; 1.0 μM test compound): 8% | Response (%) OX2R ([2]; 10 μM test compound): 19%

COc1ccc(-c2cccc(C(=O)N(C)C)c2)cc1S(=O)(=O)Nc1cccc(N(C)C(=O)Nc2cccc(N(C)C)c2)c1 [Example 125, 3′-(N-(3-(3-(3-(dimethylamino)phenyl)-1-methylureido)phenyl)sulfamoyl)-4′-methoxy-N,N-dimethyl-[1,1′-biphenyl]-3-carboxamide]
Emax at 0.1 µM [1]: < 5% | Emax at 1 µM [1]: < 5% | Emax at 10 µM [1]: < 5% | Response (%) OX2R ([2]; test compound 0.1 μM): 42% | Response (%) OX2R ([2]; test compound 1.0 μM): 78% | Response (%) OX2R ([2]; test compound 10 μM): 79%

COc1ccc(-c2cccc(C(=O)N(C)C)c2)cc1S(=O)(=O)Nc1cccc(Nc2c(Nc3ccc(C)cc3)c(=O)c2=O)c1 [Example 84]
Response (%) OX1R [1, 3]: <5% | Response (%) OX1R [1, 4]: <5% | Response (%) OX1R [1, 5]: 10% | Response (%) OX2R ([2]; test compound 0.1 μM): 6% | Response (%) OX2R ([2]; test compound 1.0 μM): 6% | Response (%) OX2R ([2]; test compound 10 μM): 21%
